Reference: US8404679B2, “Pyrrolidine derivatives as NK2 receptor antagonists” (Hoffmann-La Roche Inc., priority 2008, dated 2013)

Each compound was assayed against T1, human NK2 receptor (Homo sapiens, UniProt P21452) (assay: [3H]SR48968 competition binding assay). Conditions: [3H]SR48968 displacement, membranes of CHO cells stably expressing recombinant human NK2 receptor; Ki from IC50 by Cheng-Prussoff.
T1 construct: purchased Perkin Elmer biosignal Inc. 6110510
T1 sequence (P21452 1-398): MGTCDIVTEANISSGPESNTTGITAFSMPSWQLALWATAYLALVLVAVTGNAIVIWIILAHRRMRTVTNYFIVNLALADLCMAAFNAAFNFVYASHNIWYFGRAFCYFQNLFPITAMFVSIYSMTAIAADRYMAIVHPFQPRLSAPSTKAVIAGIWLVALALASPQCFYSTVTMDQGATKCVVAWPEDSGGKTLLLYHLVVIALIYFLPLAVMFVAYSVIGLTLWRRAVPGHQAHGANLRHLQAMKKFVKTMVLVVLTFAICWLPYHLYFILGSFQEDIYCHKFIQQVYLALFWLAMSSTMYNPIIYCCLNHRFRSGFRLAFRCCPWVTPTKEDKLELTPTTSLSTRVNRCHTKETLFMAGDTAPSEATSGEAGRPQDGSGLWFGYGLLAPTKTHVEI
Experimental: [^3H]SR48968 Competition Binding Assay
hNK2 receptor binding experiment were performed using [^3H]SR48968 (Catalog No. TRK398, specific activity: 27.0 Ci/mmol, Amersham, GE Healthcare UK limited, Buckinghamshire, UK) and membrane isolated from CHO cells stably expressing recombinant human NK2 receptor (product No. 6110510, Perkin Elmer biosignal Inc., Shelton, Conn., USA). After thawing, the membrane homogenates were centrifuged at 48,000×g for 10 min at 4° C., the pellets were resuspended in the 50 mM Tris-HCl, 3 mM MnCl2, 4 μg/mL Chymostatin, 0.04% BSA binding buffer at pH 7.4 to a final assay concentration of 6.5 μg protein/well. For inhibition experiments, membranes were incubated with [^3H]SR48968 at a concentration equal to KD value of radioligand and 10 concentrations of the inhibitory compound (0.0003-10 μM) (in a total reaction volume of 500 μl) for 75 min at room temperature (RT). At the end of the incubation, membranes were filtered onto unitfilter (96-well white microplate with bonded GF/C filter preincubated 1 h in 0.3% polyethylenimine, Packard BioScience, Meriden, Conn.) with a Filtermate 196 harvester (Packard BioScience) and washed 4 times with ice-cold 50 mM Tris-HCl, pH 7.4 buffer. Nonspecific binding was measured in the presence of 10 μM 1-{2-[(R)-3-(3,4-dichloro-phenyl)-1-(3,4,5-trimethoxy-benzoyl)-pyrrolidin-3-yl]-ethyl}-4-phenyl-piperidine-4-carboxylic acid amide. The radioactivity on the filter was counted (5 min) on a Packard Top-count microplate scintillation counter with quenching correction after addition of 45 μl of microscint 40 (Canberra Packard S. A., Zürich, Switzerland) and shaking for 1 h. Inhibition curves were fitted according to the Hill equation: y=100/(1+(x/IC50)^nH), where nH=slope factor using Excel-fit 4 software (Microsoft). IC50 values were derived from the inhibition curve and the affinity constant (Ki) values were calculated using the Cheng-Prussoff equation Ki=IC50/(1+[L]/KD) where [L] was the concentration of radioligand and KD was its dissociation constant at the receptor, derived from the saturation isotherm.

Structure (SMILES) | Ki
CN(C(=O)c1ccc2c(c1)OC(F)(F)O2)[C@@H]1CN(C(=O)N2CCN(S(C)(=O)=O)CC2)C[C@H]1c1ccc(Cl)c(Cl)c1 (racemic) [Example 28, rac-2,2-Difluoro-benzo[1,3]dioxole-5-carboxylic acid [(3S,4R)-4-(3,4-dichloro-phenyl)-1-(4-methanesulfonyl-piperazine-1-carbonyl)-pyrrolidin-3-yl]-methyl-amide] | 2.04 nM
CN(C(=O)c1ccc(-n2cccc2)cc1)[C@@H]1CN(C(=O)N2CCN(S(C)(=O)=O)CC2)C[C@H]1c1ccc(Cl)c(Cl)c1 (racemic) [Example 30, rac-N-[(3S,4R)-4-(3,4-Dichloro-phenyl)-1-(4-methanesulfonyl-piperazine-1-carbonyl)-pyrrolidin-3-yl]-N-methyl-4-pyrrol-1-yl-benzamide] | 4.59 nM
CN(C(=O)c1ccc2c(c1)CCO2)[C@@H]1CN(C(=O)N2CCN(S(C)(=O)=O)CC2)C[C@H]1c1ccc(Cl)c(Cl)c1 (racemic) [Example 31, rac-2,3-Dihydro-benzofuran-5-carboxylic acid [(3S,4R)-4-(3,4-dichloro-phenyl)-1-(4-methanesulfonyl-piperazine-1-carbonyl)-pyrrolidin-3-yl]-methyl-amide] | 14.8 nM
CN(C(=O)c1ccc(F)c(Cl)c1)[C@@H]1CN(C(=O)N2CCN(S(C)(=O)=O)CC2)C[C@H]1c1ccc(Cl)c(Cl)c1 (racemic) [Example 32, rac-3-Chloro-N-[(3S,4R)-4-(3,4-dichloro-phenyl)-1-(4-methanesulfonyl-piperazine-1-carbonyl)-pyrrolidin-3-yl]-4-fluoro-N-methyl-benzamide] | 4.57 nM
COc1ccc(C(=O)N(C)[C@@H]2CN(C(=O)N3CCN(S(C)(=O)=O)CC3)C[C@H]2c2ccc(Cl)c(Cl)c2)cc1Cl (racemic) [Example 33, rac-3-Chloro-N-[(3S,4R)-4-(3,4-dichloro-phenyl)-1-(4-methanesulfonyl-piperazine-1-carbonyl)-pyrrolidin-3-yl]-4-methoxy-N-methyl-benzamide] | 8.57 nM
CN(C(=O)c1ccc2nccnc2c1)[C@@H]1CN(C(=O)N2CCN(S(C)(=O)=O)CC2)C[C@H]1c1ccc(Cl)c(Cl)c1 (racemic) [Example 34, rac-Quinoxaline-6-carboxylic acid [(3S,4R)-4-(3,4-dichloro-phenyl)-1-(4-methanesulfonyl-piperazine-1-carbonyl)-pyrrolidin-3-yl]-methyl-amide] | 76.7 nM
CC(C#N)c1cccc(C(=O)N(C)[C@@H]2CN(C(=O)N3CCN(S(C)(=O)=O)CC3)C[C@H]2c2ccc(Cl)c(Cl)c2)c1 (mixture of isomers) [Example 35, rac-3-(Cyano-methyl-methyl)-N-[(3S,4R)-4-(3,4-dichloro-phenyl)-1-(4-methanesulfonyl-piperazine-1-carbonyl)-pyrrolidin-3-yl]-N-methyl-benzamide] | 28.5 nM
CN(C(=O)c1ccc(F)c(C(F)(F)F)c1)[C@@H]1CN(C(=O)N2CCN(S(C)(=O)=O)CC2)C[C@H]1c1ccc(Cl)c(Cl)c1 (racemic) [Example 36, rac-N-[(3S,4R)-4-(3,4-Dichloro-phenyl)-1-(4-methanesulfonyl-piperazine-1-carbonyl)-pyrrolidin-3-yl]-4-fluoro-N-methyl-3-trifluoromethyl-benzamide] | 3.59 nM
COc1ccc(C(=O)N(C)[C@@H]2CN(C(=O)N3CCN(S(C)(=O)=O)CC3)C[C@H]2c2ccc(Cl)c(Cl)c2)cc1 (racemic) [Example 37, rac-N-[(3S,4R)-4-(3,4-Dichloro-phenyl)-1-(4-methanesulfonyl-piperazine-1-carbonyl)-pyrrolidin-3-yl]-4-methoxy-N-methyl-benzamide] | 8.89 nM
CN(C(=O)c1cc(C(F)(F)F)ccc1F)[C@@H]1CN(C(=O)N2CCN(S(C)(=O)=O)CC2)C[C@H]1c1ccc(Cl)c(Cl)c1 (racemic) [Example 38, rac-N-[(3S,4R)-4-(3,4-Dichloro-phenyl)-1-(4-methanesulfonyl-piperazine-1-carbonyl)-pyrrolidin-3-yl]-2-fluoro-N-methyl-5-trifluoromethyl-benzamide] | 9.5 nM
CCN(C(=O)c1ccc(OC)c(C(F)(F)F)c1)[C@@H]1CN(C(=O)N2CCN(S(C)(=O)=O)CC2)C[C@H]1c1ccc(Cl)c(Cl)c1 (racemic) [Example 39, rac-N-[(3S,4R)-4-(3,4-Dichloro-phenyl)-1-(4-methanesulfonyl-piperazine-1-carbonyl)-pyrrolidin-3-yl]-N-ethyl-4-methoxy-3-trifluoromethyl-benzamide] | 68.3 nM
COc1ccc(C(=O)N(C)[C@@H]2CN(C(=O)c3ccc(C#N)cc3)C[C@H]2c2ccc(Cl)c(Cl)c2)cc1C(F)(F)F (racemic) [Example 41, rac-N-[(3S,4R)-1-(4-Cyano-benzoyl)-4-(3,4-dichloro-phenyl)-pyrrolidin-3-yl]-4-methoxy-N-methyl-3-trifluoromethyl-benzamide] | 1.45 nM
COc1ccc(C(=O)N2C[C@@H](N(C)C(=O)c3ccc(OC)c(C(F)(F)F)c3)[C@H](c3ccc(Cl)c(Cl)c3)C2)cc1 (racemic) [Example 44, rac-N-[(3S,4R)-4-(3,4-Dichloro-phenyl)-1-(4-methoxy-benzoyl)-pyrrolidin-3-yl]-4-methoxy-N-methyl-3-trifluoromethyl-benzamide] | 4.24 nM
COc1ccc(C(=O)N(C)[C@@H]2CN(C(=O)c3ccc(N(C)C)cc3)C[C@H]2c2ccc(Cl)c(Cl)c2)cc1C(F)(F)F (racemic) [Example 45, rac-N-[(3S,4R)-4-(3,4-Dichloro-phenyl)-1-(4-dimethylamino-benzoyl)-pyrrolidin-3-yl]-4-methoxy-N-methyl-3-trifluoromethyl-benzamide] | 2.98 nM
COc1ccc(C(=O)N(C)[C@@H]2CN(C(=O)c3ccc(F)cc3)C[C@H]2c2ccc(Cl)c(Cl)c2)cc1C(F)(F)F (racemic) [Example 46, rac-N-[(3S,4R)-4-(3,4-Dichloro-phenyl)-1-(4-fluoro-benzoyl)-pyrrolidin-3-yl]-4-methoxy-N-methyl-3-trifluoromethyl-benzamide] | 3.26 nM
COc1ccc(C(=O)N(C)[C@@H]2CN(C(=O)c3cccc(C#N)c3)C[C@H]2c2ccc(Cl)c(Cl)c2)cc1C(F)(F)F (racemic) [Example 47, rac-N-[(3S,4R)-1-(3-Cyano-benzoyl)-4-(3,4-dichloro-phenyl)-pyrrolidin-3-yl]-4-methoxy-N-methyl-3-trifluoromethyl-benzamide] | 3.65 nM
COc1ccc(C(=O)N(C)[C@@H]2CN(C(=O)c3ccc4occc4c3)C[C@H]2c2ccc(Cl)c(Cl)c2)cc1C(F)(F)F (racemic) [Example 48, rac-N-[(3S,4R)-1-(Benzofuran-5-carbonyl)-4-(3,4-dichloro-phenyl)-pyrrolidin-3-yl]-4-methoxy-N-methyl-3-trifluoromethyl-benzamide] | 5.36 nM
COc1ccc(C(=O)N(C)[C@@H]2CN(C(=O)c3cc(S(C)(=O)=O)ccc3F)C[C@H]2c2ccc(Cl)c(Cl)c2)cc1C(F)(F)F (racemic) [Example 49, rac-N-[(3S,4R)-4-(3,4-Dichloro-phenyl)-1-(2-fluoro-5-methanesulfonyl-benzoyl)-pyrrolidin-3-yl]-4-methoxy-N-methyl-3-trifluoromethyl-benzamide] | 2.53 nM
COc1ccc(C(=O)N(C)[C@@H]2CN(C(=O)c3ccc(C(F)(F)F)cc3)C[C@H]2c2ccc(Cl)c(Cl)c2)cc1C(F)(F)F (racemic) [Example 50, rac-N-[(3S,4R)-4-(3,4-Dichloro-phenyl)-1-(4-trifluoromethyl-benzoyl)-pyrrolidin-3-yl]-4-methoxy-N-methyl-3-trifluoromethyl-benzamide] | 6.3 nM
COc1ccc(C(=O)N(C)[C@@H]2CN(C(=O)c3ccncc3)C[C@H]2c2ccc(Cl)c(Cl)c2)cc1C(F)(F)F (racemic) [Example 51, rac-N-[(3S,4R)-4-(3,4-Dichloro-phenyl)-1-(pyridine-4-carbonyl)-pyrrolidin-3-yl]-4-methoxy-N-methyl-3-trifluoromethyl-benzamide] | 3 nM
